In ChEMBL document CHEMBL3507680, “University of Dundee, Gates Library screen for HepG2 cell viability”:
“And” between values parts separate entries of the source, which are not always exact repeats. Identical values can stand only once.

Experiment: Human HepG2 cell viability assay in 384 well format
Type: toxicity, cell-based
Set-up: dose 125 nL, time 70.5 hour; cytotoxicity at 70.5 h: concentration not given beside the values
Conditions: HepG2 cells, read-out: Inhibition

SMILES	cytotoxicity at 70.5 h [%]
Nc1nonc1C(=O)N1Cc2ccccc2OC2(CCOCC2)C1	2.48
CNC(=O)NCC(=O)Nc1ccccc1N1CCc2ccccc21	-3.43
CC(=O)N1CCC2(CCCN(S(=O)(=O)c3ccc(F)cc3)C2)C1 (stereo unspecified)	5.56
CCn1ncc2c1C(COCC1CC1)CN(c1ccc(C)nn1)C2 (stereo unspecified)	-10.4
O=c1cc2c(nn1CN1CCC(c3ccccc3)CC1)CCC2	-17.6
COc1ccc(C(=O)N2CCOCC2c2ccc(C)o2)cc1 (stereo unspecified)	-9.97
CCS(=O)(=O)NCCN(CCO)C1CCc2ccccc21 (stereo unspecified)	-58.4
CCOc1ncccc1C(=O)N1CCCC(n2nc(C)nc2C)C1 (stereo unspecified)	-11.7
COc1ccc2c(ccn2CCC(=O)NCc2ccc(C(=O)O)cc2)c1	-13.5
O=C1[C@H]2CN(CC3CCOCC3)C[C@H]2CN1c1ccsc1	-1.42
COc1cccc(CNCc2c(C)nn(C)c2N(C)C)c1	0.816
Cc1ccsc1CNC(=O)c1ccc2c(c1)CCC(=O)N2	16.1
CC(C)(C)c1noc(-c2nc3c([nH]2)CCCNC3=O)n1	-4.9
Cc1ccc(-c2cc(C(=O)NCCC3=CCCCC3)[nH]n2)o1	-10.6
Cc1cc(CNC2CCCN(Cc3noc(C4CC4)n3)C2)on1 (stereo unspecified)	23.9
COc1ccc(NC(=O)Cn2nc(C)c(C)cc2=O)c(OC)c1	-8.67
CN(Cc1ccon1)C(=O)C1CC(=O)N(Cc2cccnc2)C1 (stereo unspecified)	-7.61
c1ccc(CN2CCOCC3(CCN(C4CCOCC4)C3)C2)cc1 (stereo unspecified)	-2.29
CCC(Nc1nc(C)nc2c1cnn2C)c1ncnn1CC (stereo unspecified)	-1.28
Cc1cccc(CN(Cn2nc(C)c3c(C)onc3c2=O)C2CC2)c1	-13.7
Cc1ncnc2c1CCN(C(=O)c1cccc(F)c1)CC2	-5.99
COC(=O)CCCNC(=O)N1CCc2c(F)ccc(F)c2C1	-1.47

SMILES	cytotoxicity at 70.5 h [%]
Cc1cc(C2CCCN(CCS(=O)(=O)c3ccccc3)C2)n[nH]1 (stereo unspecified)	-8.26
O=C(NCC1CCOC1)c1cc(-c2cccc(Cl)c2)[nH]n1 (stereo unspecified)	-17
COc1c(C2CCCN2C(=O)c2cnc[nH]2)c(C)nn1C (stereo unspecified)	-2.57
COc1ccc(C(=O)N2C[C@@H](CN3CCCCC3)[C@@H](CO)C2)cc1Cl	-1.81
CNC(=O)COc1c(F)cc(Br)cc1C(C)=O	-5.63
Cc1noc(C)c1C(=O)N1C[C@@H]2CCCO[C@@H]2[C@H](N(C)C)C1	-8.14
O=C(OCc1ccccc1)N1CC[C@H]2CC(CO)O[C@@H]2C1 (stereo partly specified)	4.61
Cc1c(C)n2c(SCC(=O)N3CCCCCC3)nnc2[nH]c1=O	-7.58
CCN(CC)CCNCc1cc(O)c2cc(C)ccc2n1	-11.3
CN(Cc1nnc(C2CC2)n1C)S(=O)(=O)c1ccc(F)c(C#N)c1	-23.4
CCOC(=O)c1coc(N2CCN(C(=O)c3cccc(OC)c3)CC2)n1	-8.88
CCC1CN(C(=O)COc2ccc(NC(C)=O)cc2)CCO1 (stereo unspecified)	13.7
CN(Cc1cnn(C)c1)C(=O)NCc1csc(Br)c1	17.7
COc1cccc(N2CCC(N3CCOC(C(F)(F)F)C3)CC2)c1 (stereo unspecified)	-18.1
Cn1ccnc1N1CCN(C(=O)Cc2ccccc2)CC1	-8.11
Cc1cccc(CN2CC[C@@H]3[C@@H]2CCN3C(=O)Cc2ccsc2)n1	-22.6
Cc1nc(CN2CCCC(Cn3cncn3)C2)no1 (stereo unspecified)	15.8
CN1CC(=O)N(c2ccccc2)CC12CCN(S(C)(=O)=O)C2 (stereo unspecified)	20.4
Cc1csc(C2CCCN(C(=O)c3cc(Cl)c[nH]3)C2)n1 (stereo unspecified)	-0.903
O=C(c1ccco1)N1CCC(n2nc(-c3ccco3)ccc2=O)CC1	-3.82
CC1CCc2nn(CCNC(=O)Cc3ccccc3F)c(=O)cc2C1 (stereo unspecified)	0.912
NC(=O)C1CN(Cc2c(O)ccc3oc4c(c23)CCCC4)CCO1 (stereo unspecified)	-5.87

SMILES	cytotoxicity at 70.5 h [%]
Cc1cnc(CN(Cc2ccccc2)CC2CCOCC2)cn1	-3.35
Cc1cc(=O)[nH]c(-n2nc(C)c(CCC(=O)NCc3ccco3)c2C)n1	31.1
CO[C@H]1CCN(Cc2cnn(C)c2)[C@@H]2CN(Cc3cccnc3)C[C@H]12	-25.8
Cc1c(C(=O)NCCCS(C)(=O)=O)cccc1-c1ccccn1	7.88
Cc1ccc(OCC2CCCN(C(=O)c3csc(CN(C)C)n3)C2)cc1 (stereo unspecified)	-4.88
O=C(COCc1ccccc1Cl)N1CCN(c2cnccn2)CC1	-6.52
COc1cc(NC2CCCN(c3ncccn3)C2)cc(OC)c1 (stereo unspecified)	3.49
CC(C)(C)C(=O)N1C[C@H](c2ccsc2)[C@H]2CN(C3CCCC3)CC[C@H]21	-4.45
Cc1cc(C2CCCN(Cc3nnc(Cc4ccccc4)o3)C2)n[nH]1 (stereo unspecified)	-9.79
O=C(CC1CC1)N1CC[C@H]2[C@@H]1CCC(=O)N2Cc1ccncc1	-9.8
Cc1nc(C)n(CC2CCCN(CC3CCCCC3)C2)n1 (stereo unspecified)	-1.64
CCOC(C)c1nc(CN2CCN(CC(F)F)CC2)cs1 (stereo unspecified)	-5.97
CCOc1ccc(NC(=O)NC2CCc3nc(C)nn3C2)cc1Cl (stereo unspecified)	-2.45
CC(C)(C)S(=O)(=O)CCNC1CSCCc2ccccc21 (stereo unspecified)	27.7
O=C(C1CC1)N1CCC2(CC1)CNCc1ccccc12	18.9
O=C(NCCn1nc2ccccn2c1=O)c1cc(C2CC2)[nH]n1	2.27
CCn1ccnc1CN1CCN(C(C)C(=O)NC2CCCCC2)CC1 (stereo unspecified)	33.2
O=C(NCc1ccco1)Nc1ccc2nc(N3CCOCC3)oc2c1	-2.89
O=C(NC1CC1)NC(c1ccc(F)cc1)C1CC1 (stereo unspecified)	-7.03
Cc1ccc(NC(=O)NCCn2cnc(C)c(C)c2=O)cc1F	-1.25
CC(COCC(F)(F)F)NC(=O)c1ccc(-c2ccco2)[nH]c1=O (stereo unspecified)	-1.67
CS(=O)(=O)NCC1CCCCN1C(=O)c1ccsc1 (stereo unspecified)	-2.66

SMILES	cytotoxicity at 70.5 h [%]
CS(=O)(=O)CCN1CC(c2ccccc2)(c2ccccc2)CCC1=O	22.9
CC(C)(C)c1nnc(CNc2c(F)cccc2-n2cccn2)o1	-8.76
COc1ccc(C(CO)NC(=O)Nc2cccc(C(C)=O)c2)cc1 (stereo unspecified)	-6.17
c1ccc(-n2nnnc2CNCC2CCCN2c2cccnn2)cc1 (stereo unspecified)	-0.967
CC(C)C(C(=O)N1CCCN(c2nccs2)CC1)n1cncn1 (stereo unspecified)	1.24
CC(C)(C)c1nccc(N2CCC(OCCN3CCCCC3)C2)n1 (stereo unspecified)	-6.69
COC(=O)c1ccc(C2SCC(=O)Nc3c2cnn3C(C)(C)C)cc1 (stereo unspecified)	-13.2
C[C@@H]1CN(C(=O)c2cc(COc3ccc4c(c3)OCO4)[nH]n2)C[C@H](C)O1	-3.48
O=C(NCc1nncn1-c1ccccc1)C1CC(=O)N(CC2CC2)C1 (stereo unspecified)	-18.1
CC(C)N(C)[C@@H]1CCN(Cc2ccoc2)[C@H]1Cc1ccccc1	-1.21
CNC(=O)NC(=O)CCN1CCOC(c2ccc(Br)cc2)C1 (stereo unspecified)	-7.41
Cn1cc(CN2CC[C@H]3C[C@H](c4nc(C5CC5)cs4)O[C@@H]3C2)cn1	-12.5
Fc1ccc(CNCCn2cccn2)c(F)c1	21.2
Cc1ccc(C)c(OCC(=O)NC2CCN(c3ccccn3)CC2)c1	-11.1
CCOc1ccccc1C(=O)Nc1cccc(C[S+](C)[O-])c1C (stereo unspecified)	15.1
CC(C)N(Cc1cccc(Cl)c1)Cc1nnsc1Cl	-2.95
COc1ccccc1Oc1ncccc1CNC(=O)[C@@H](N)[C@@H](C)O	-1.67
O=C1CC[C@]2(CC[C@@H](NC3CCOC3)CC2)N1Cc1ccncc1 (stereo partly specified)	-2.28
O=C(NCc1ccco1)[C@H]1CC[C@@H]2[C@@H](CCN2Cc2cccnc2)O1	-5.95
NC(=O)CC1CCCN(C(=O)NCC2(c3cccs3)CCCC2)C1 (stereo unspecified)	-0.84
CCS(=O)(=O)N1C[C@@H]2CN(Cc3cccs3)CCO[C@@H]2C1	6.04
COCC(=O)NC[C@]1(O)CN(Cc2ccc3c(c2)OCCO3)C[C@H]1O	-12.9

SMILES	cytotoxicity at 70.5 h [%]
O=C(NCC1Cn2nnc(-c3ccncc3)c2CO1)c1ccsc1 (stereo unspecified)	1.38
Cc1cc(-c2cnn(CCNC(=O)c3cc[nH]n3)c2C2CC2)on1	-0.801
Cc1cc(CN2CCN(C(=O)NC(C)c3cccs3)CC2)on1 (stereo unspecified)	-5.41
COc1ccc(S(=O)(=O)Nc2cccnc2-n2cncn2)cc1C	0.714
CCCNC(=O)COc1cc(C)c2c(C)nn(-c3ccc(C)cc3)c2n1	-2.23
CN(C)CCNC(=O)c1ccccc1NC(=O)c1cc(Cl)ccc1Cl	26.4
CN(Cc1ccco1)[C@@H]1CN(Cc2ccc(F)cc2)C[C@@H]2CCCO[C@@H]21	2.25
Cc1ccc(CN2CCOC3(COCCN(S(C)(=O)=O)C3)C2)s1 (stereo unspecified)	-6.35
Cc1ccc(-c2noc(C(C)NS(C)(=O)=O)n2)cc1 (stereo unspecified)	21.2
CC(C)(C)c1ncc(C(=O)NCCSc2ccccn2)c(O)n1	30.9
OC(COCc1cccs1)Cn1cc(Br)cn1 (stereo unspecified)	-1.14
CC(C)c1nc(C2CCCN2CCN2CCCCC2)no1 (stereo unspecified)	-5.16
NC(=O)CN(Cc1ccc(Br)cc1)C(=O)c1ccccn1	-4.46
COc1ccc(-c2noc([C@@H](C)NS(=O)(=O)CC(C)C)c2C(=O)O)cc1	-10.7
COCC1CCN(C(=O)c2cccc(S(=O)(=O)NC3CCCC3)c2)C1 (stereo unspecified)	-6.74
CN(C)S(=O)(=O)N1CC[C@]2(O)CCN(CCc3cccc(F)c3)C[C@@H]2C1	-11.2
N#Cc1c(N2CCCCC2)nsc1-c1cccnc1	25
COCCN1CCCCC12CC(=O)N(c1ccccc1OC)C2 (stereo unspecified)	-2.67
CCCN(Cc1cccnc1)C(=O)C1CCCN(C)C1 (stereo unspecified)	2.68
CC(=O)N(C)Cc1cncc(C2CCCN2C2CCOCC2)n1 (stereo unspecified)	-9.86
CCN(CC1CCOC1)C(=O)Nc1ccc(OCC(F)(F)F)nc1 (stereo unspecified)	-2.33
Cc1nn(C)c(C)c1C1CCCN1Cc1nc(C)c2ccccc2n1 (stereo unspecified)	5.7

Same assay, conditions: hepg2, 70.5 h, 70.5 h

SMILES	Inhibition
CC1=Nc2c(c(=O)[nH]n2C2CCCC2)C(c2cccnc2)S1 (stereo unspecified)	-2.319% and 7.616%
